Target: T1, Dopamine beta hydroxylase (Homo sapiens, UniProt P09172)
T1 construct: 125 μl of plasma; tissue Instituto Português do Sangue Transplantação; host or cells: human plasma from healthy donors
T1 sequence (P09172 40-617 limits assumed): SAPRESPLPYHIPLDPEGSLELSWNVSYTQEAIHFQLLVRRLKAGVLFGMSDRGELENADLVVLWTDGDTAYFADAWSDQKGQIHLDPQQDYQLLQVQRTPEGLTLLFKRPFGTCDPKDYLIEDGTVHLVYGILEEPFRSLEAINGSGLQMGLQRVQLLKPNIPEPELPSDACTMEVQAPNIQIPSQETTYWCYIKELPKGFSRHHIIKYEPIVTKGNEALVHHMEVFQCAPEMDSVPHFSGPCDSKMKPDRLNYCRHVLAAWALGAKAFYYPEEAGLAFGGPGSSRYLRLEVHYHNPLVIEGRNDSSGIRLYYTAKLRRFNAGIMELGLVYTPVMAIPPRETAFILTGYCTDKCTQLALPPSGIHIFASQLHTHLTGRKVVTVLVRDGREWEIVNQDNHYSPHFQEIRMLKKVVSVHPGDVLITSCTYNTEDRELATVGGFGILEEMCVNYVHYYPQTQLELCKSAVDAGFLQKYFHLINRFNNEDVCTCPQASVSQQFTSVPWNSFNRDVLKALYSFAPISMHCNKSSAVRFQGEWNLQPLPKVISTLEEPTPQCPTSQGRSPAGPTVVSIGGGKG
Assay: Dopamine beta hydroxylase activity in human plasma
Format: biochemical
Details: for Plasma (0.01 μM), activity in % of control: inhibitor 0.01 μM; for Plasma (0.1 μM), activity in % of control: inhibitor 0.1 μM; for Plasma (1 μM), activity in % of control: inhibitor 1 μM
In short: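 Healthy-donor human plasma pre-incubated 10 min at 37° C with compound at final 10, 100 or 1000 nM in pH 5.0 acetate buffer with ascorbate, fumarate, pargyline, N-ethylmaleimide, catalase and copper sulfate. Tyramine substrate then added for 45 min; octopamine formed was isolated by SCX cartridge, periodate-converted and read at 330 nm; activity given as % control.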

Structure (SMILES) | Plasma (0.01 μM), activity in % of control | Plasma (0.1 μM), activity in % of control | Plasma (1 μM), activity in % of control
Cn1c(CC(=O)NC2CCCC2)c2n(c1=S)C[C@@]1(c3c(F)ccc(Cl)c3F)C[C@@H]21 [Example 271, 2-((5aS,6aR)-5a-(3-chloro-2,6-difluorophenyl)-2-methyl-3-thioxo-2,3,5,5a,6,6a-hexahydrocyclopropa[3,4]pyrrolo[1,2-c]imidazol-1-yl)-N-cyclopentylacetamide] | 62.1 % of control | 13.2 % of control | 
Cn1c(CC(=O)NCC#N)c2n(c1=S)C[C@@]1(c3cc(Cl)ccc3F)C[C@@H]21 [Example 304, 2-((5aS,6aR)-5a-(5-chloro-2-fluorophenyl)-2-methyl-3-thioxo-2,3,5,5a,6,6a-hexahydrocyclopropa[3,4]pyrrolo[1,2-c]imidazol-1-yl)-N-(cyanomethyl)acetamide] | 51.9 % of control | 21.1 % of control | 
Fc1ccc(Br)c(F)c1[C@@H]1Cc2c(CCNC3CCC3)[nH]c(=S)n2C1 [Example 181, (S)-6-(3-bromo-2,6-difluorophenyl)-1-(2-(cyclobutylamino)ethyl)-2,5,6,7-tetrahydro-3H-pyrrolo[1,2-c]imidazole-3-thione] | 68.9 % of control | 18.3 % of control | 
Cl.Cn1c(CC(=O)NCc2ccccn2)c2n(c1=S)C[C@@]1(c3cc(Cl)ccc3F)C[C@@H]21 [Example 332, 2-((5aS,6aR)-5a-(5-chloro-2-fluorophenyl)-2-methyl-3-thioxo-2,3,5,5a,6,6a-hexahydrocyclopropa[3,4]pyrrolo[1,2-c]imidazol-1-yl)-N-(pyridin-2-ylmethyl)acetamide Hydrochloride] | 32.8 % of control | 2.7 % of control | 
O=C(O)CCc1[nH]c(=S)n2c1C[C@H](c1c(F)c(F)cc(F)c1F)C2 [Example 202, (R)-3-(6-(2,3,5,6-tetrafluorophenyl)-3-thioxo-2,5,6,7-tetrahydro-3H-pyrrolo[1,2-c]imidazol-1-yl)propanoic Acid] | 67.7 % of control | 22.7 % of control | 
CC1CCN(C(=O)CCc2[nH]c(=S)n3c2C[C@H](c2c(F)c(F)cc(F)c2F)C3)CC1 [Example 208, (R)-1-(4-methylpiperidin-1-yl)-3-(6-(2,3,5,6-tetrafluorophenyl)-3-thioxo-2,5,6,7-tetrahydro-3H-pyrrolo[1,2-c]imidazol-1-yl)propan-1-one] | 62.0 % of control | 13.3 % of control | 
O=C(Cc1[nH]c(=S)n2c1C[C@@H](c1c(F)ccc(Cl)c1F)C2)NCCn1cccn1 [Example 162, (S)—N-(2-(1H-pyrazol-1-yl)ethyl)-2-(6-(3-chloro-2,6-difluorophenyl)-3-thioxo-2,5,6,7-tetrahydro-3H-pyrrolo[1,2-c]imidazol-1-yl)acetamide] | 87.2 % of control | 31.3 % of control | 
CN(C(=O)Cc1c2n(c(=S)n1C)C[C@@H](c1c(F)c(F)cc(F)c1F)C2)C1CCOC1 (stereo partly drawn) [Example 375, N-methyl-2-((R)-2-methyl-6-(2,3,5,6-tetrafluorophenyl)-3-thioxo-2,5,6,7-tetrahydro-3H-pyrrolo[1,2-c]imidazol-1-yl)-N-(tetrahydrofuran-3-yl)acetamide] | 90.0 % of control | 40.7 % of control | 
Cn1c(CCC(=O)N2CCOCC2)c2n(c1=S)C[C@@H](c1c(F)c(F)cc(F)c1F)C2 [Example 318, (R)-3-(2-methyl-3-thioxo-6-(2,3,5,6-tetrafluorophenyl)-2,5,6,7-tetrahydro-3H-pyrrolo[1,2-c]imidazol-1-yl)-1-morpholinopropan-1-one] | 88.4 % of control | 61.4 % of control | 
Cn1c(CC(=O)NC2COC2)c2n(c1=S)C[C@@H](c1c(F)c(F)cc(F)c1F)C2 [Example 394, (R)-2-(2-methyl-6-(2,3,5,6-tetrafluorophenyl)-3-thioxo-2,5,6,7-tetrahydro-3H-pyrrolo[1,2-c]imidazol-1-yl)-N-(oxetan-3-yl)acetamide] | 92.1 % of control | 47.6 % of control | 
Cn1c(CC(=O)NC2CCCC2)c2n(c1=S)C[C@@]1(c3cc(Br)ccc3F)C[C@@H]21 [Example 272, 2-((5aS,6aR)-5a-(5-bromo-2-fluorophenyl)-2-methyl-3-thioxo-2,3,5,5a,6,6a-hexahydrocyclopropa[3,4]pyrrolo[1,2-c]imidazol-1-yl)-N-cyclopentylacetamide] | 73.5 % of control | 22.7 % of control | 
CN(C)C(=O)C1CCN(C(=O)Cc2c3n(c(=S)n2C)C[C@H](c2c(F)ccc(Br)c2F)C3)C1 (stereo partly drawn) [Example 453, 1-(2-((S)-6-(3-bromo-2,6-difluorophenyl)-2-methyl-3-thioxo-2,5,6,7-tetrahydro-3H-pyrrolo[1,2-c]imidazol-1-yl)acetyl)-N,N-dimethylpyrrolidine-3-carboxamide] | 56.6 % of control | 10.4 % of control | 
O=C(Cc1[nH]c(=S)n2c1C[C@H](c1c(F)c(F)cc(F)c1F)C2)NCC1CC1 [Example 79, (R)—N-(cyclopropylmethyl)-2-(6-(2,3,5,6-tetrafluorophenyl)-3-thioxo-2,5,6,7-tetrahydro-3H-pyrrolo[1,2-c]imidazol-1-yl)acetamide] |  | 54.3 % of control | 10.3 % of control
CCCNC(=O)Cc1[nH]c(=S)n2c1C[C@@H](c1c(F)ccc(Br)c1F)C2 [Example 97, (S)-2-(6-(3-bromo-2,6-difluorophenyl)-3-thioxo-2,5,6,7-tetrahydro-3H-pyrrolo[1,2-c]imidazol-1-yl)-N-propylacetamide] |  | 22.7 % of control | 0.5 % of control
F.Fc1ccc(Cl)cc1[C@]12C[C@H]1c1c(CCN3CCCCC3)[nH]c(=S)n1C2 [Example 194, (5aS,6aR)-5a-(5-chloro-2-fluorophenyl)-1-(2-(piperidin-1-yl)ethyl)-5,5a,6,6a-tetrahydrocyclopropa[3,4]pyrrolo[1,2-c]imidazole-3(2H)-thione Hydrofluoride] | 82.9 % of control | 62.4 % of control | 
Fc1ccc(Cl)cc1[C@]12C[C@H]1c1c(CCNc3cccnc3)[nH]c(=S)n1C2 [Example 197, (5aS,6aR)-5a-(5-chloro-2-fluorophenyl)-1-(2-(pyridin-3-ylamino)ethyl)-5,5a,6,6a-tetrahydrocyclopropa[3,4]pyrrolo[1,2-c]imidazole-3(2H)-thione] | 75.9 % of control | 29.4 % of control | 
Cn1cc(NC(=O)Cc2c3n(c(=S)n2C)C[C@H](c2c(F)ccc(Cl)c2F)C3)cn1 [Example 350, (S)-2-(6-(3-chloro-2,6-difluorophenyl)-2-methyl-3-thioxo-2,5,6,7-tetrahydro-3H-pyrrolo[1,2-c]imidazol-1-yl)-N-(1-methyl-1H-pyrazol-4-yl)acetamide] | 85.7 % of control | 28.2 % of control | 
